# Assay results: patent publication US11884686B2, “Chelate compounds” (priority 2016, dated 2024)
# Entries after “also recorded” stand apart in the source; their conditions may differ.
# Key:
# Format in all cases: physicochemical
# [1] = Water solubility of Mn(II) based chelates; settings: thermodynamic from solid, 25° C.
# Method: The solubility of Mn(II) based chelates was confirmed by dissolving purified Mn(II) based chelates ( 99% purity) in a prescribed volume of solvent (Millipore water 18.2 MegaOhm from a Millipore BioCell Benchtop unit) to provide a solution of given volume. Solutions were visually inspected for homogeneity and filtered through a 0.45 um PTFE filter membrane if necessary. The assessment was carried out at 25° C. Final sample concentrations were confirmed by determination of final Mn(II) concentration via ICP-MS (Spectro Arcos FHS[…] 10003910 or S/N 12006120).
# [2] = In vitro proton relaxivity in human serum; settings: 60 MHz, 40° C.
# Method: Both the longitudinal and transverse relaxation times were measured in human serum (BioreclamationIVT, Cat #HMSRM-M) to reflect the efficiency of the Mn(II) based chelates in an environment close to physiological. The relaxivity assessment was carried out at a concentration ranging from 5 to 0 mM Mn(II), at 40° C. using a Minispec Mq benchtop NMR relaxometer (Bruker Instruments, Rheinstetten, Germany) operating at 60 MHz (1.4 T) with an inversion recovery pulse sequence. The longitudinal and transverse relaxivities of the complexes (e.g., r1 and r2 respectively) were calculated by plotting the reciprocal of their relaxation time versus the manganese concentration as determined via ICP-MS (Spectro Arcos FHS12, S/N 10003910 or S/N 12006120) for each Mn(II) based chelates. The dependence of T1 by B0 (i.e., magnetic field) applied was assessed via the acquisition of ^1H Nuclear Magnetic Relaxation Dispersion (NMRD) profiles. A dedicated Stelar SMARTracer Fast Field Cycling relaxometer (0.01-10 MHz) and a Bruker WP80 NMR electromagnet adapted to variable field measurements (20-80 MHz) and controlled by a SMARTracer PC-NMR console was used to record the ^1H NMRD profiles over an extended range of Larmor Frequencies (from 0.01 to 80 MHz). The temperature was monitored by a VTC91 temperature control unit and maintained by a gas flow. The temperature was determined by previous calibration with a Pt resistance temperature probe. High field relaxivities were measured on a Bruker AVANCE NMR spectrometer at 400 MHz. A total of 25 data points per NMRD profile were recorded at each temperature, pH 6.9 and with a manganese concentration in the samples of 6.99, 6.78 and 4.45 mM for the prior art Mn Chelate, Mn Chelate 4 and Mn Chelate 3, respectively. The concentration of Mn(II) in all samples was verified by Bulk Magnetic Susceptibility (BMS) measurements. Relaxivity was computed by subtracting the relaxation rate of the medium (distilled water) from the relaxation rate of the Mn(II) complex solution at each field strength and dividing the difference by the manganese concentration verified by BMS measurements.
# The linear fit (R2>0.99 for all compounds examined) of 1/T1 and 1/T2 as a function of Mn concentration generated the r1 or r2 values reported in Table 4 for human serum.
# [3] = Dissociation kinetics via Cu2+ transmetallation (UV-Vis absorbance); settings: for overall kinetic inertness: Cu2+ and Zn2+ transmetallation, all experimental conditions; for nature of the kinetic dissociation curve, Cu2+ exchange: UV-Vis absorbance at 300 nm, all pH and Cu2+ concentrations assessed; for kobs1 / kobs2: 25° C., 0.2 mM chelate; for conversion of Mn chelate during transmetallation: competing Cu2+, FIGS. 9 and 10
# Method: Kinetic inertness was evaluated at slightly acidic pH due to the slow rate of dissociation of the paramagnetic complex at physiological pH and to the potential hydrolysis of the metal ions at the concentrations used for the experiments and at pH values close to physiological.
# The dissociation kinetics of the prior art Mn Chelate, Mn Chelate 4 and Mn Chelate 3 at a concentration of 0.2 mM was assessed via Cu^2+ transmetallation recording the time-dependent change of the UV-Vis absorbance in the presence of an excess of competing metal ion (10 and 40 equivalents of Cu^2+); at 25° C. and different pH (pH: 5.0; 5.2; 5.4). For all assessments, the reaction mixture contained 0.15 M NaCl; 50 mM NMP. The ? for the acquisition of the UV-Vis spectra was selected based on the difference between the observed absorbance for the Mn(II) based chelates (e.g., prior art Mn Chelate, Mn Chelate 3 and Mn Chelate 4) and the newly formed Cu^2+-complex in order to have the best differentiation between the two chemical species. The UV-Vis spectra were acquired at ? =300 nm on a Perkin-Elmer Lambda 19 spectrophotometer. Indeed, the displacement of Mn(II) ion induced by Cu^2+ led to an increase of the observed absorbance at ? =300 nm for all Mn(II) based chelates in all experimental conditions. This increase is due the formation of the Cu^2+-complex.
# For any of the transmetallation experiments carried out with the prior art Mn Chelate (e.g., at different pH; different Zn^2+ or Cu^2+ concentration) it was evident that the variation of the relaxation rate T1 (for the Zn^2+-exchange; FIG. 4) or the variation of the UV-Vis absorbance (for the Cu^2+-exchange; FIG. 5) caused by competing metal ion was a “single phase” process better described as a mono-exponential function. […] The rate of dissociation described by kobs was calculated via equation (1) where [MnL]tot is the total concentration of Mn(II) based chelates and t is the observation time.
# These biphasic kinetic curves could be mathematically well fitted with the biexponential equation (2) where A is the observed absorbance; b, A1 and A2 are constants specific for the biphasic dissociation process for a Mn(II) based chelate; kobs1 and kobs2 are the rate constants describing the biphasic dissociation and t is the observation time. A=b−A1e^−k^obs1^t−A2e^−k^obs2t (Equation 2)
# The rates of the biphasic dissociation for Mn Chelate 3 and Mn Chelate 4 described by kobs1 and kobs2 and of the monophasic dissociation for the prior art Mn Chelate described by kobs were calculated via equation (2) and (1) respectively for the different experimental conditions utilized in the set of experiments.
# From the qualitative comparison of the kinetic curves and preliminary kobs it was evident that Mn Chelate 3 and Mn Chelate 4 dissociate with a different mechanism described by a biexponential function and at a slower rate compared to the prior art Mn Chelate. To quantitatively compare the kinetic inertness of these Mn(II) based chelates, the direct comparison of the evolution of the UV-Vis absorbance at 300 nm was recorded for the Cu^2+ exchange reaction. Direct comparison of the UV-Vis absorbance allowed quantification of the conversion of the Mn(II) based chelates into Cu^2+ based chelates during the transmetallation reaction which can be correlated to the kinetic inertness of the Mn(II) complex. The “conversion” was calculated following equation (3), where At is the absorbance at a time t (or end of the reaction), A0 is the absorbance at time zero (or beginning of the acquisition) and Aeq is the absorbance at the equilibrium.
Structure (SMILES),solubility [1] [mM],r1 (longitudinal relaxivity) [2] [mM⁻¹ s⁻¹],overall kinetic inertness [3],"nature of the kinetic dissociation curve, Cu2+ exchange [3]","kobs1 ([3]; pH = 5.0, CCu2+ 0.002 M) [min⁻¹]","kobs2 ([3]; pH = 5.0, CCu2+ 0.002 M) [min⁻¹]","kobs1 ([3]; pH = 5.0, CCu2+ 0.008 M) [min⁻¹]","kobs2 ([3]; pH = 5.0, CCu2+ 0.008 M) [min⁻¹]","kobs1 ([3]; pH = 5.2, CCu2+ 0.002 M) [min⁻¹]","kobs2 ([3]; pH = 5.2, CCu2+ 0.002 M) [min⁻¹]",conversion of Mn chelate during transmetallation [3],"kobs1 ([3]; pH = 5.4, CCu2+ 0.002 M) [min⁻¹]","kobs2 ([3]; pH = 5.4, CCu2+ 0.002 M) [min⁻¹]"
CN(C[C@H](O)[C@@H](O)[C@H](O)[C@H](O)CO)C(=O)CCCN1CCN2Cc3cccc(n3)CN(CC1)C(CCC(=O)N(C)C[C@H](O)[C@@H](O)[C@H](O)[C@H](O)CO)C(=O)[O][Mn][O]C(=O)C2CCC(=O)N(C)C[C@H](O)[C@@H](O)[C@H](O)[C@H](O)CO (stereo partly shown) [Mn Chelate 3],> 500,8.0,evident improvement in overall kinetic inertness,biphasic nature,0.483,0.0023,0.378,0.0024,0.303,0.0015,,,
CN1CCN2Cc3cccc(n3)CN(CC1)C(CCC(=O)N(C)C[C@H](O)[C@@H](O)[C@H](O)[C@H](O)CO)C(=O)[O][Mn][O]C(=O)C2CCC(=O)N(C)C[C@H](O)[C@@H](O)[C@H](O)[C@H](O)CO (stereo partly shown) [Mn Chelate 4],> 500,5.3,evident improvement in overall kinetic inertness; also recorded: most kinetically inert compound examined,biphasic nature,0.340,0.0013,0.190,0.0009,0.240,0.0009,dissociates even slower,0.201,0.001
"CN1CCN2CC(=O)[O][Mn][O]C(=O)CN(CC1)Cc1cccc(n1)C2 [Prior Art Mn Chelate, reference compound]",> 500,3.0,,single phase,0.034,,0.035,,0.022,,reaches a full conversion at much shorter time point than Mn Chelate 3,0.017,
